# Laboratory results as given in ChEMBL document CHEMBL1201862, “PubChem BioAssay data set” (2004).
# Values joined by “and” are separate entries in the source; they are usually repeats but may differ in a detail not shown here. Identical values can stand only once.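 Briefly, cells in 96-well plates were exposed to five compound concentrations for 48 h, and endpoints were estimated by linear interpolation. Abbreviation: GI50, concentration required for 50% inhibition of growth.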 Active and inactive are the calls of the source. Cut-off read from the data, not from the text of the source: active = GI50 up to about 1.1 µM and inactive = higher.
# Experiments:
# Assay in all cases: DTP human tumour cell line panel, 48 h
# [1] = test system: HT-29
# [2] = test system: K562
# [3] = test system: M19-MEL
# [4] = test system: Malme-3M
# [5] = test system: NCI-H522
# [6] = test system: RPMI-8226
# [7] = test system: 786-0
# [8] = test system: A498
# [9] = test system: A549
# [10] = test system: ACHN
# [11] = test system: BT-549
# [12] = test system: CAKI-1
# [13] = test system: CCRF-CEM
# [14] = test system: COLO 205
# [15] = test system: DU-145
# [16] = test system: EKVX
# [17] = test system: HCC 2998
# [18] = test system: HCT-116
# [19] = test system: HCT-15
# [20] = test system: HL-60
# [21] = test system: HOP-62
# [22] = test system: HOP-92
# [23] = test system: Hs-578T
# [24] = test system: IGROV-1
# [25] = test system: KM12
# [26] = test system: LOX IMVI
# [27] = test system: M14
# [28] = test system: MCF7
# [29] = test system: MDA-MB-231
# [30] = test system: MDA-MB-435
# [31] = test system: MDA-N
# [32] = test system: MOLT-4
# [33] = test system: NCI-H226
# [34] = test system: NCI-H23
# [35] = test system: NCI-H460
# [36] = test system: NCI/ADR-RES
# [37] = test system: OVCAR-3
# [38] = test system: OVCAR-4
# [39] = test system: OVCAR-5
# [40] = test system: OVCAR-8
# [41] = test system: PC-3
# [42] = test system: RXF 393
# [43] = test system: SF-268
# [44] = test system: SF-295
# [45] = test system: SF-539
# [46] = test system: SK-MEL-28
# [47] = test system: SK-MEL-2
# [48] = test system: SK-MEL-5
# [49] = test system: SK-OV-3
# [50] = test system: SN12C
# [51] = test system: SNB-19
# [52] = test system: SNB-75
# [53] = test system: SR
# [54] = test system: SW-620
# [55] = test system: T47D
# [56] = test system: TK-10
# [57] = test system: U-251
# [58] = test system: UACC-257
# [59] = test system: UACC-62
# [60] = test system: UO-31
# [61] = test system: DLD-1
# [62] = test system: DMS-273
# [63] = test system: LXFL 529
# [64] = test system: DMS-114
# [65] = test system: KM-20L2
# [66] = test system: SNB-78
structure (smiles),measurement,setting,value
COc1ccc(C(c2ccccc2)C(C)C(=O)c2c(C)cc(C)cc2C)cc1 (stereo not drawn),GI50,[1],47.4 µM (inactive) and 56 µM (inactive)
same,GI50,[2],94.2 µM (inactive) and 53.7 µM (inactive)
same,GI50,[3],42.5 µM (inactive) and 59 µM (inactive)
same,GI50,[4],57.7 µM (inactive)
same,GI50,[5],37.8 µM (inactive) and 53.5 µM (inactive)
same,GI50,[6],69.8 µM (inactive) and 79.8 µM (inactive)
N#Cc1c(N2CCCC2)ncn(Cc2ccccc2)c1=S,GI50,[7],36.2 µM (inactive)
same,GI50,[8],40.6 µM (inactive)
same,GI50,[9],> 100 µM (inactive)
same,GI50,[10],> 92.7 µM (inactive)
same,GI50,[11],> 100 µM (inactive)
same,GI50,[12],> 48 µM (inactive)
same,GI50,[13],> 100 µM (inactive)
same,GI50,[14],> 100 µM (inactive)
same,GI50,[15],86.3 µM (inactive)
same,GI50,[16],> 79.3 µM (inactive)
same,GI50,[17],> 100 µM (inactive)
same,GI50,[18],> 100 µM (inactive)
same,GI50,[19],> 100 µM
same,GI50,[20],> 100 µM (inactive)
same,GI50,[21],40.3 µM (inactive)
same,GI50,[22],22.4 µM (inactive)
same,GI50,[1],> 100 µM (inactive)
same,GI50,[23],> 54.8 µM (inactive)
same,GI50,[24],> 87.9 µM (inactive)
same,GI50,[2],> 100 µM (inactive)
same,GI50,[25],> 100 µM (inactive)
same,GI50,[26],> 100 µM (inactive)
same,GI50,[27],> 100 µM (inactive)
same,GI50,[28],49.1 µM (inactive)
same,GI50,[29],> 88.3 µM (inactive)
same,GI50,[30],> 100 µM (inactive)
same,GI50,[31],> 100 µM (inactive)
same,GI50,[32],> 100 µM (inactive)
same,GI50,[4],> 87.9 µM (inactive)
same,GI50,[33],> 96.2 µM (inactive)
same,GI50,[34],> 100 µM (inactive)
same,GI50,[35],> 100 µM (inactive)
same,GI50,[5],> 90.4 µM (inactive)
same,GI50,[36],65 µM (inactive)
same,GI50,[37],60.5 µM (inactive)
same,GI50,[38],44.2 µM (inactive)
same,GI50,[39],> 100 µM (inactive)
same,GI50,[40],57.1 µM (inactive)
same,GI50,[41],71.3 µM (inactive)
same,GI50,[6],> 100 µM (inactive)
same,GI50,[42],30.3 µM (inactive)
same,GI50,[43],33.6 µM (inactive)
same,GI50,[44],94.6 µM (inactive)
same,GI50,[45],40.1 µM (inactive)
same,GI50,[46],> 100 µM (inactive)
same,GI50,[47],> 100 µM (inactive)
same,GI50,[48],> 100 µM (inactive)
same,GI50,[49],> 100 µM (inactive)
same,GI50,[50],> 100 µM (inactive)
same,GI50,[51],58.5 µM (inactive)
same,GI50,[52],25.8 µM (inactive)
same,GI50,[53],> 100 µM (inactive)
same,GI50,[54],> 100 µM (inactive)
same,GI50,[55],> 86.7 µM (inactive)
same,GI50,[56],> 100 µM (inactive)
same,GI50,[57],38.9 µM (inactive)
same,GI50,[58],> 100 µM (inactive)
same,GI50,[59],68.7 µM (inactive)
same,GI50,[60],> 100 µM (inactive)
O=C(Nc1ccccc1C(=O)NCCCO)/C(=C/c1ccccc1O)NC(=O)c1ccccc1,GI50,[7],34 µM (inactive)
same,GI50,[8],> 91.2 µM (inactive)
same,GI50,[9],> 100 µM (inactive)
same,GI50,[10],30.8 µM (inactive)
same,GI50,[11],19.8 µM (inactive)
same,GI50,[12],> 100 µM (inactive)
same,GI50,[13],> 100 µM (inactive)
same,GI50,[14],> 100 µM (inactive)
same,GI50,[15],> 81.8 µM (inactive)
same,GI50,[16],65.6 µM (inactive)
same,GI50,[17],> 100 µM (inactive)
same,GI50,[18],37.3 µM (inactive)
same,GI50,[19],> 78.2 µM
same,GI50,[20],> 100 µM (inactive)
same,GI50,[21],20.5 µM (inactive)
same,GI50,[22],53.3 µM (inactive)
same,GI50,[1],> 100 µM (inactive)
same,GI50,[23],26.2 µM (inactive)
same,GI50,[24],36.6 µM (inactive)
same,GI50,[2],> 100 µM (inactive)
same,GI50,[25],18.4 µM (inactive)
same,GI50,[26],21.5 µM (inactive)
same,GI50,[27],55.6 µM (inactive)
same,GI50,[28],5.36 µM (inactive)
same,GI50,[29],26.7 µM (inactive)
same,GI50,[30],> 50.5 µM (inactive)
same,GI50,[31],> 43.5 µM (inactive)
same,GI50,[32],> 100 µM (inactive)
same,GI50,[4],95.3 µM (inactive)
same,GI50,[33],39.3 µM (inactive)
same,GI50,[34],36.1 µM (inactive)
same,GI50,[35],> 72.1 µM (inactive)
same,GI50,[5],25.2 µM (inactive)
same,GI50,[36],17 µM (inactive)
same,GI50,[37],48.8 µM (inactive)
same,GI50,[38],56.8 µM (inactive)
same,GI50,[39],> 100 µM (inactive)
same,GI50,[40],> 42.7 µM (inactive)
same,GI50,[41],33.1 µM (inactive)
same,GI50,[6],> 100 µM (inactive)
same,GI50,[42],28.1 µM (inactive)
same,GI50,[43],35.6 µM (inactive)
same,GI50,[44],34.4 µM (inactive)
same,GI50,[45],30.8 µM (inactive)
same,GI50,[46],> 100 µM (inactive)
same,GI50,[47],44.3 µM (inactive)
same,GI50,[48],> 100 µM (inactive)
same,GI50,[49],51.5 µM (inactive)
same,GI50,[50],> 80.9 µM (inactive)
same,GI50,[51],16.9 µM (inactive)
same,GI50,[52],20.2 µM (inactive)
same,GI50,[53],> 100 µM (inactive)
same,GI50,[54],> 84.3 µM (inactive)
same,GI50,[55],16.3 µM (inactive)
same,GI50,[56],97.9 µM (inactive)
same,GI50,[57],30 µM (inactive)
same,GI50,[58],> 100 µM (inactive)
same,GI50,[59],19.5 µM (inactive)
same,GI50,[60],20.7 µM (inactive)
c1ccncc1,GI50,[9],> 100 µM (inactive)
same,GI50,[10],> 100 µM (inactive)
same,GI50,[61],> 100 µM (inactive)
same,GI50,[62],> 100 µM (inactive)
same,GI50,[19],> 100 µM
same,GI50,[26],> 100 µM (inactive)
same,GI50,[63],> 100 µM (inactive)
same,GI50,[4],> 100 µM (inactive)
same,GI50,[33],> 100 µM (inactive)
same,GI50,[34],> 100 µM (inactive)
same,GI50,[43],> 100 µM (inactive)
same,GI50,[45],> 100 µM (inactive)
same,GI50,[50],> 100 µM (inactive)
same,GI50,[52],85.5 µM (inactive)
same,GI50,[53],> 100 µM (inactive)
CC(=O)Nc1ccc2c(c1)C(=O)c1ccccc1-2,GI50,[7],> 100 µM (inactive)
same,GI50,[9],> 100 µM (inactive)
same,GI50,[10],> 100 µM (inactive)
same,GI50,[13],> 100 µM (inactive)
same,GI50,[14],> 100 µM (inactive)
same,GI50,[61],> 100 µM (inactive)
same,GI50,[64],> 100 µM (inactive)
same,GI50,[62],> 100 µM (inactive)
same,GI50,[16],> 100 µM (inactive)
same,GI50,[17],> 100 µM (inactive)
same,GI50,[18],> 100 µM (inactive)
same,GI50,[19],> 100 µM
same,GI50,[20],> 100 µM (inactive)
same,GI50,[21],> 100 µM (inactive)
same,GI50,[1],> 100 µM (inactive)
same,GI50,[24],> 100 µM (inactive)
same,GI50,[2],> 100 µM (inactive)
same,GI50,[65],> 100 µM (inactive)
same,GI50,[25],> 100 µM (inactive)
same,GI50,[26],> 100 µM (inactive)
same,GI50,[63],> 100 µM (inactive)
same,GI50,[27],> 100 µM (inactive)
same,GI50,[3],> 100 µM (inactive)
same,GI50,[32],> 100 µM (inactive)
same,GI50,[4],> 100 µM (inactive)
same,GI50,[33],> 100 µM (inactive)
same,GI50,[34],> 100 µM (inactive)
same,GI50,[35],> 100 µM (inactive)
same,GI50,[5],> 100 µM (inactive)
same,GI50,[37],> 100 µM (inactive)
same,GI50,[40],> 100 µM (inactive)
same,GI50,[6],> 100 µM (inactive)
same,GI50,[42],> 100 µM (inactive)
same,GI50,[43],> 100 µM (inactive)
same,GI50,[44],> 100 µM (inactive)
same,GI50,[45],> 100 µM (inactive)
same,GI50,[46],> 100 µM (inactive)
same,GI50,[49],> 100 µM (inactive)
same,GI50,[50],> 100 µM (inactive)
same,GI50,[51],> 100 µM (inactive)
same,GI50,[52],> 100 µM (inactive)
same,GI50,[66],> 100 µM (inactive)
same,GI50,[53],> 100 µM (inactive)
same,GI50,[54],> 100 µM (inactive)
same,GI50,[56],> 100 µM (inactive)
same,GI50,[57],> 100 µM (inactive)
same,GI50,[58],> 100 µM (inactive)
same,GI50,[59],> 100 µM (inactive)
same,GI50,[60],> 100 µM (inactive)
